Common to all, as to assay type: cell-based, mouse
The test system of assay [1] is α7 integrin (LacZ reporter in α7βgal+/− myoblasts). Nature of the assay: Myoblast α7+/LacZ integrin FDG assay (Burkin assay in myoblasts, 96-well). The settings on record: 96-well; for Burkin Assay in Myoblasts, value relative to DMSO: SU9516 analogs, N=3-6; for Burkin Assay in Myoblasts, signal relative to DMSO: α7+/LacZ myoblasts.
For assay [2], the system named is α7 integrin (LacZ reporter in α7+/LacZ myotubes). Nature of the assay: Myotube α7 integrin FDG assay (Burkin assay in myotubes, 96-well). To be noted: for Burkin Assay in Myotubes, value relative to DMSO: SU9516 analogs, 96-well, N=3-6.
In assay [3] the test system is β-galactosidase in CMV-LacZ C2C12 myoblasts. Kind of assay: CMV-LacZ secondary screen in C2C12 myoblasts (β-Gal stabilizing assay). To be noted: for CMV-LACZ in Myoblasts, value relative to DMSO: SU9516 analogs, C2C12 CMV-LacZ, N=2; for CMV-LACZ in Myoblasts (β-galactosidase activity relative to DMSO): CMV-LacZ C2C12 myoblasts. An outline of the steps:
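β-Gal level was the read-out, measured in a clonal C2C12 line expressing LacZ from a CMV promoter. Dose-response curves used six concentrations, 0.5 μM up to 40 μM, with duplicate points.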

Assay [4] deals with β-galactosidase in CMV-LacZ C2C12 myotubes. Kind of assay: CMV-LacZ secondary screen in C2C12 myotubes (β-Gal stabilizing assay). To be noted: for CMV-LACZ in Myotubes, value relative to DMSO: SU9516 analogs, C2C12 CMV-LacZ, N=2; for CMV-LACZ in Myotubes, signal relative to DMSO: C2C12 CMV-LacZ myotubes, fold relative to DMSO. An outline of the steps: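 CMV-LacZ C2C12 line (clonal, FDG-screened); myoblasts/myotubes dosed 0.5–40 μM (0.5, 1, 5, 10, 20, 40 μM); n=2 per point; β-gal stabilization read-out.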

From patent publication US9980943B2, “Methods of treating muscular dystrophy” (BOARD OF REGENTS OF THE NEVADA SYSTEM OF HIGHER EDUCATION, …, priority 2013, dated 2018) come the findings set out here.

Consider `O=C1Nc2ccccc2/C1=C/c1cnc(-c2ccccc2)[nH]1` [MLS000834756-01], for which the “Burkin Assay in Myoblasts, value relative to DMSO” value stood at 1.056 in assay [1] (0.5 uM); 1.098 in assay [1] (1 uM); 1.227 in assay [1] (5 uM); 1.172 in assay [1] (10 uM); 1.064 in assay [1] (20 uM); 1.081 in assay [1] (40 uM). Besides, the “Burkin Assay in Myotubes, value relative to DMSO” value in assay [2] (0.5 uM) is 1.079; in assay [2] (1 uM), 1.189; in assay [2] (5 uM) it was 1.095; in assay [2] (10 uM), 0.9214; in assay [2] (20 uM), 0.9495; in assay [2] (40 uM), 0.9189. The “CMV-LACZ in Myoblasts, value relative to DMSO” value in assay [3] (0.5 uM) was determined as 0.8709; in assay [3] (1 uM), 1.0422; in assay [3] (5 uM), 1.2652; in assay [3] (10 uM), 1.0917; in assay [3] (20 uM), 0.8022; in assay [3] (40 uM) it was 1.1889. In addition, the “CMV-LACZ in Myotubes, value relative to DMSO” value in assay [4] (0.5 uM) is listed as 0.9859; in assay [4] (1 uM) it was 1.0059; in assay [4] (5 uM), 1.1994; in assay [4] (10 uM), 1.1713; in assay [4] (20 uM), 2.0788; in assay [4] (40 uM), 2.2953.

As to `COc1ccccc1NS(=O)(=O)c1cc(NC(=O)c2ccc(Cl)nc2)ccc1N1CCCC1` [MLS002248819-01], the “Burkin Assay in Myoblasts, signal relative to DMSO” value came out at 1.126 in assay [1] (0.5 uM); 1.113 in assay [1] (1 uM); 1.068 in assay [1] (5 uM); 1.0849 in assay [1] (10 uM); 0.8184 in assay [1] (20 uM); 0.7689 in assay [1] (40 uM). The “Burkin Assay in Myotubes, α7 integrin LacZ reporter signal relative to DMSO” value in assay [2] (0.5 uM) is on record as 1.117; in assay [2] (1 uM), 1.198; in assay [2] (5 uM) it was 1.066; in assay [2] (10 uM) it was 1.24; in assay [2] (20 uM), 0.9243; in assay [2] (40 uM), 0.8508. Besides, the “CMV-LACZ in Myoblasts (β-galactosidase activity relative to DMSO)” value in assay [3] (0.5 uM) worked out at 0.9206; in assay [3] (1 uM), 1.2206; in assay [3] (5 uM) it was 1.2604; in assay [3] (10 uM), 1.1575; in assay [3] (20 uM) it was 1.7330; in assay [3] (40 uM), 1.0270. The “CMV-LACZ in Myotubes, signal relative to DMSO” value in assay [4] (0.5 uM) was 1.0819; in assay [4] (1 uM) it was 0.9505; in assay [4] (5 uM), 1.1171; in assay [4] (10 uM), 1.1534; in assay [4] (20 uM), 0.9847; in assay [4] (40 uM), 1.1929.

As to `O=C(O)COc1ccccc1/C=C1\C(=O)Nc2ccc(Br)cc21` [MLS001196427-01], the “Burkin Assay in Myoblasts, value relative to DMSO” value in assay [1] (0.5 uM) was determined as 1.02; in assay [1] (1 uM), 1.033; in assay [1] (5 uM), 0.9384; in assay [1] (10 uM), 0.9777; in assay [1] (20 uM), 0.8102; in assay [1] (40 uM), 0.8763. Besides, the “Burkin Assay in Myotubes, value relative to DMSO” value in assay [2] (0.5 uM) amounted to 0.9194; in assay [2] (1 uM) it was 1.02; in assay [2] (5 uM), 1.022; in assay [2] (10 uM) it was 1.135; in assay [2] (20 uM), 0.7942; in assay [2] (40 uM), 0.9365. The “CMV-LACZ in Myoblasts, value relative to DMSO” value in assay [3] (0.5 uM) is 0.7219; in assay [3] (1 uM), 1.0356; in assay [3] (5 uM), 0.9957; in assay [3] (10 uM), 1.1811; in assay [3] (20 uM), 0.7144; in assay [3] (40 uM) it was 0.9563. Moreover, the “CMV-LACZ in Myotubes, value relative to DMSO” value in assay [4] (0.5 uM) stood at 0.9363; in assay [4] (1 uM), 1.0704; in assay [4] (5 uM), 0.8423; in assay [4] (10 uM) it was 0.9282; in assay [4] (20 uM), 0.9918; in assay [4] (40 uM), 0.9000.

As for `O=C1Nc2ccccc2/C1=C/c1ccc([N+](=O)[O-])cc1` [MLS001194544-01], the “Burkin Assay in Myoblasts, value relative to DMSO” value in assay [1] (0.5 uM) was determined as 1.044; in assay [1] (1 uM), 0.9906; in assay [1] (5 uM), 1.02; in assay [1] (10 uM) it was 1.145; in assay [1] (20 uM), 0.7914; in assay [1] (40 uM), 0.5028. Further, the “Burkin Assay in Myotubes, value relative to DMSO” value in assay [2] (0.5 uM) amounted to 0.9611; in assay [2] (1 uM), 0.9995; in assay [2] (5 uM) it was 1.002; in assay [2] (10 uM) it was 1.07; in assay [2] (20 uM), 0.754; in assay [2] (40 uM), 0.7611. For the same compound, the “CMV-LACZ in Myoblasts, value relative to DMSO” value came out at 0.8975 in assay [3] (0.5 uM); 0.7213 in assay [3] (1 uM); 0.9068 in assay [3] (5 uM); 1.0363 in assay [3] (10 uM); 0.8983 in assay [3] (20 uM); 0.7383 in assay [3] (40 uM). The “CMV-LACZ in Myotubes, value relative to DMSO” value in assay [4] (0.5 uM) amounted to 1.0764; in assay [4] (1 uM), 1.1318; in assay [4] (5 uM), 0.9683; in assay [4] (10 uM), 0.9739; in assay [4] (20 uM) it was 0.9800; in assay [4] (40 uM) it was 0.9400.
